Laboratory results reported in ChEMBL document CHEMBL3244132, “Semisynthetic aminoglycoside antibacterials. 6. Synthesis of sisomicin, Antibiotic G-52, and novel 6'-substituted analogues of sisomicin from aminoglycoside 66-40C” (J Med Chem, 1978).
The source made the active and inactive calls.

Legend:
Type in all cases: functional
Histomonas meleagridis = test: Antiprotozoal activity against Histomonas meleagridis
Staphylococcus aureus [1] = test: Antimicrobial activity against Staphylococcus aureus 59N by tube dilution method
Providencia = test: Antimicrobial activity against Providencia 164 carrying AAC(2')-I by tube dilution method
Escherichia coli [2] = test: Antimicrobial activity against Escherichia coli ATCC 10536 by tube dilution method
Klebsiella pneumoniae [3] = test: Antimicrobial activity against Klebsiella pneumoniae Georgetown 3694 carrying APH(2'') by tube dilution method
Streptococcus pyogenes [4] = test: Antimicrobial activity against Streptococcus pyogenes 27 by tube dilution method
Escherichia coli [5] = test: Antimicrobial activity against Escherichia coli Baker 2 carrying APH(3')-I by tube dilution method
Escherichia coli [6] = test: Antimicrobial activity against Escherichia coli HL97/W677 carrying AAC(6') by tube dilution method
Pseudomonas aeruginosa [7] = test: Antimicrobial activity against Pseudomonas aeruginosa St. M. 762 by tube dilution method
Staphylococcus aureus [8] = test: Antimicrobial activity against Staphylococcus aureus Ziegler by tube dilution method
Providencia rettgeri [9] = test: Antimicrobial activity against Providencia rettgeri Membel by tube dilution method
Serratia marcescens = test: Antimicrobial activity against Serratia marcescens Dalton by tube dilution method
Bacillus subtilis = test: Antimicrobial activity against Bacillus subtilis ATCC 6633 by tube dilution method
Streptococcus pyogenes [10] = test: Antimicrobial activity against Streptococcus pyogenes Group A Cruz by tube dilution method
Pseudomonas aeruginosa [11] = test: Antimicrobial activity against Pseudomonas aeruginosa GN 315 carrying AAC(6') by tube dilution method
Escherichia coli [12] = test: Antimicrobial activity against Escherichia coli JR88 carrying AAC(3) by tube dilution method
Trichomonas vaginalis = test: Antiprotozoal activity against Trichomonas vaginalis after 48 hrs
Streptococcus pyogenes [13] = test: Antimicrobial activity against Streptococcus pyogenes C by tube dilution method
Staphylococcus aureus [14] = test: Antimicrobial activity against Staphylococcus aureus 209 P by tube dilution method
Staphylococcus aureus [15] = test: Antimicrobial activity against Staphylococcus aureus Wood by tube dilution method
Klebsiella pneumoniae [16] = test: Antimicrobial activity against Klebsiella pneumoniae Adler 17 carrying APH(3')-I by tube dilution method
Escherichia coli [17] = test: Antimicrobial activity against Escherichia coli LA290R55 carrying ANT(2'') by tube dilution method
Streptococcus pyogenes [18] = test: Antimicrobial activity against Streptococcus pyogenes Alvarez by tube dilution method
Proteus mirabilis = test: Antimicrobial activity against Proteus mirabilis Harding by tube dilution method
Salmonella typhimurium = test: Antimicrobial activity against Salmonella typhimurium Gr. B. by tube dilution method; conditions: Salmonella enterica subsp. enterica serovar Typhimurium
Providencia rettgeri [19] = test: Antimicrobial activity against Providencia rettgeri Anderson by tube dilution method
Entamoeba histolytica = test: Antiprotozoal activity against Entamoeba histolytica JH
Pseudomonas aeruginosa [20] = test: Antimicrobial activity against Pseudomonas aeruginosa St. M. 1395 by tube dilution method
Pseudomonas aeruginosa [21] = test: Antimicrobial activity against Pseudomonas aeruginosa Stone 130 carrying AAC(3) by tube dilution method

Measured: Activity

CN[C@@H]1[C@@H](O)[C@@H](O[C@@H]2[C@@H](O)[C@H](O[C@H]3OC(CNN)=CC[C@H]3N)[C@@H](N)C[C@H]2N)OC[C@]1(C)O
inactive: all assays above

CN[C@@H]1[C@@H](O)[C@@H](O[C@@H]2[C@@H](O)[C@H](O[C@H]3O[C@H](C(C)N)[C@@H](O)[C@H](O)[C@H]3N)[C@@H](N)C[C@H]2N)OC[C@]1(C)O (stereo not given in full)
inactive: Histomonas meleagridis | Trichomonas vaginalis | Entamoeba histolytica

CN[C@@H]1[C@@H](O)[C@@H](O[C@@H]2[C@@H](O)[C@H](O[C@H]3OC(/C=N\N)=CC[C@H]3N)[C@@H](N)C[C@H]2N)OC[C@]1(C)O
inactive: all assays above

CN[C@@H]1[C@@H](O)[C@@H](O[C@@H]2[C@@H](O)[C@H](O[C@H]3OC(CNOC)=CC[C@H]3N)[C@@H](N)C[C@H]2N)OC[C@]1(C)O
inactive: all assays above

CN[C@@H]1[C@@H](O)[C@@H](O[C@@H]2[C@@H](O)[C@H](O[C@H]3OC(/C=N\O)=CC[C@H]3N)[C@@H](N)C[C@H]2N)OC[C@]1(C)O
inactive: all assays above

CN[C@@H]1[C@@H](O)[C@@H](O[C@@H]2[C@@H](O)[C@H](O[C@H]3OC(C(C)N)CC[C@H]3N)[C@@H](N)C[C@H]2N)OC[C@]1(C)O (single isomer, unassigned)
inactive: Histomonas meleagridis | Trichomonas vaginalis | Entamoeba histolytica

CN[C@@H]1[C@@H](O)[C@@H](O[C@@H]2[C@@H](O)[C@H](O[C@H]3OC(CNN4CCOCC4)=CC[C@H]3N)[C@@H](N)C[C@H]2N)OC[C@]1(C)O
inactive: all assays above

CN[C@@H]1[C@@H](O)[C@@H](O[C@@H]2[C@@H](O)[C@H](O[C@H]3OC(/C=N\OC)=CC[C@H]3N)[C@@H](N)C[C@H]2N)OC[C@]1(C)O
inactive: all assays above

CN[C@@H]1[C@@H](O)[C@@H](O[C@@H]2[C@@H](O)[C@H](O[C@H]3OC(/C=N/N4CCOCC4)=CC[C@H]3N)[C@@H](N)C[C@H]2N)OC[C@]1(C)O
inactive: all assays above

CN[C@@H]1[C@@H](O)[C@@H](O[C@@H]2[C@@H](O)[C@H](O[C@H]3O[C@@H](CN)CC[C@H]3N)[C@@H](N)C[C@H]2N)OC[C@]1(C)O
inactive: Histomonas meleagridis | Trichomonas vaginalis | Entamoeba histolytica

CN[C@@H]1[C@@H](O)[C@@H](O[C@@H]2[C@@H](O)[C@H](O[C@H]3O[C@H](CN)[C@@H](O)[C@H](O)[C@H]3N)[C@@H](N)C[C@H]2N)OC[C@]1(C)O
inactive: Histomonas meleagridis | Trichomonas vaginalis | Entamoeba histolytica
